Assays:
[1] = tested on: Human foreskin fibroblast (HFF) cells; assay type: cell-based; settings: for IC50: Table 2 of Example 1, cytotoxicity IC50 of CAms
Protocol: HFFs were cultured in DMEM supplemented with 10% fetal bovine serum, 1% penicillin/streptomycin and plated at a concentration of 10,000 cells/well in 96-well plate. Plates were incubated at 37° C. and 5% CO2 for 24 h to allow cell attachment prior to use.
CAMs were tested for cytotoxicity against HFFs using a tetrazolium-based colorimetric assay (MTT). CAMs were first dissolved in ddH2O and then diluted in cell medium (DMEM supplemented with 1% penicillin/streptomycin) to reach concentrations of 15.6, 3.9, and 0.95 μg/mL. 100 μL cell media containing CAMs were then added to allocated wells in a 96-well plate. Cells treated with only 1% Triton X-100 and cell medium were used as positive and negative controls, respectively. After 24 h incubation, the medium was removed and replaced with fresh medium. 20 μL of MTT reagent (12 mM in PBS) was then added to each well and further incubated for 4 h at 37° C. Formazan crystals were subsequently dissolved in 100 μL acidified SDS solution at 37° C. for 4 h. […] The following is used to calculate the percent of cell viability of HFFs: […]

[2] = tested on: G. vaginalis biofilm formation; assay: Minimum biofilm inhibition concentration (MIC-B), crystal violet; assay type: cell-based, Gardnerella vaginalis; settings: 48 h, vs untreated control, FIG. 7
Protocol: The MIC-B50 of an antimicrobial is defined as the lowest concentration of the antimicrobial that inhibits 50% of treated biofilm compared to the untreated one (control), while MIC-B90 was defined as the minimum biofilm inhibitory concentration that inhibits 90% (Sandoe et al., 2006. J Antimicrob Chemother 57:767-770). G. vaginalis cells were grown overnight in sBHI broth anaerobically at 37° C. The overnight culture was diluted in BHIG broth 1:100 (v:v) to achieve ˜10^6 CFU/ml for the biofilm inhibition assay. The CAms were diluted twofold with BHIG into a 96-well tissue culture microplate (Falcon, Corning Incorporated, Corning, N.Y., USA) with a final volume of 100 μl in each well. Aliquots of 100 μl of diluted cell suspensions at 10^6 CFU/ml were added separately to different concentrations of CAms in a 96-well tissue culture microplate. The microplate was incubated for 48 h at 37° C. under anaerobic conditions. After incubation, the number of non-adherent bacterial cells was counted using a spot plate method and compared with the number of cells of the non-treated control. Then, the intact biofilm was stained with 0.1% crystal violet.
This method was performed as described by Borucki et al. with minor modifications (Borucki et al., 2003. Appl Environ Microbiol 69:7336-7342). Briefly, after counting the non-adherent cells, the biofilm was fixed at 60° C. for 60 min. in an inverted position using an incubator (New Brunswick Scientific Co., Inc., NJ, USA). In each well, 125 μl of 0.1% crystal violet was added and left at room temperature for 20 min. Each well was then rinsed three to four times with 200 μl of ddH2O and left for 15 min. to dry at room temperature. To solubilize the biofilm-stained CV, 200 μl of 95% ethanol in water was added and the microplate was incubated at 4° C. for 30 min. One hundred microliter samples of solubilized CV were transferred to a new flat-bottomed 96-well microplate. The absorbance of each sample was measured using a plate reader at 595 nm (Model 550, Bio-Rad Laboratories, Hercules, Calif., USA).

[3] = tested on: G. vaginalis pre-formed biofilm; assay: Minimum biofilm bactericidal concentration (MBC-B); assay type: cell-based, Gardnerella vaginalis; settings: 24 h, ≥3 log reduction
Protocol: This assay was performed according to Algburi et al. (Algburi et al., 2015. Path Dis 73(5)) with minor modifications: the overnight-grown G. vaginalis was diluted to approximately 10^7 CFU/ml. For the biofilm formation assay, aliquots of 200 μl were added into a 96-well tissue culture microplate, sealed by amplification tape (Nalge Nunc International, Rochester, N.Y., USA) and incubated for 24-36 h at 37° C. After incubation, the planktonic cells were removed by gently washing the biofilm twice with 200 μl of fresh broth. The biofilm was then treated with 200 μl of a predetermined concentration of the tested compound. The microplate was incubated for 24 h at 37° C. under anaerobic conditions. After incubation, the antimicrobials (supernatant) were discarded and the biofilm was washed twice with fresh BHIG broth. The biofilm was then disrupted by vigorous pipetting, in order to determine the number of biofilm-associated cells using the spot plate method.

[4] = tested on: planktonic cells of G. vaginalis; assay: Checkerboard assay, planktonic cells; assay type: cell-based, Gardnerella vaginalis; settings: for MIC of CAm in combination with metronidazole: 24 h; for MIC: read-out: MIC when used alone
Protocol: To evaluate the potential effectiveness of the antimicrobial combinations on planktonic and biofilm cells, a checkerboard assay was performed following Algburi et al. (Algburi et al., 2015. Path Dis 73(5)) with minor modifications. For planktonic cells, the overnight grown G. vaginalis was diluted to approximately 10^6 CFU/ml. Each antimicrobial agent was diluted twofold with sBHI broth into two separate 96-well non-tissue culture microplates. From each dilution of antimicrobial B, 50 μl was added horizontally over 50 μl of antimicrobial A. Then, 100 μl of bacterial suspension (10^6 CFU/ml) was separately added to the predetermined concentration of antimicrobial combinations. The MIC of each combination was determined after 24 h of incubation.
Isobolograms were used to compare the MIC and MBC-B values of each antimicrobial alone with its MIC and MBC-B values in combination with other antimicrobials. The point on the axis (X) refers to MIC or MBC-B values of the first antimicrobial with the coordinates (0, x), and the point on the axis (Y) represents the MIC or MBC-B values of the second antimicrobial with the coordinates (y, 0) when they used alone. The two MIC or MBCs-B values are connected by a dashed line (Turovskiy Y, Chikindas M L. 2011 Probiotics Antimicrob Proteins 3:144-149). The MICs or MBCs-B of each antimicrobial combination are plotted as dots on the graph. Results are expressed according to the locations of these dots from the line that connects MICs or MBCs-B of the first and second antimicrobials. When MICs or MBCs-B values are located under the line, the two combining antimicrobials are synergized, but antagonized against the tested microorganism when these dots of interaction are above. An additive effect is observed when these dots are located on the line.

`CCCCCCCCCCOC(C(=O)NCCN)C(OCCCCCCCCCC)C(=O)NCCN.Cl.Cl` (centres unmarked) [5b] was tested, and the “cytotoxicity to human fibroblasts (MTT cell viability)” value [1] was “did not produce pronounced cytotoxicity”, the IC50 [1] was 5.6 µg/mL and the “MIC-B: concentration preventing 50% or >50% of biofilm formation” value [2] was 1.6 µM. The “MBC-B G. vaginalis” value [3] was 425.6 µM, the “MIC of CAm in combination with metronidazole” value (“MIC of CAm in combination” below) [4] was 0.2 µM and the MIC [4] was 1.1 µM.
With `CCCCCCCC(=O)OC(C(=O)NCCN)C(OC(=O)CCCCCCC)C(=O)NCCN.Cl.Cl` (centres unmarked) [8a] the IC50 [1] was 55.6 µg/mL, the “MIC-B: concentration preventing 50% or >50% of biofilm formation” value [2] was 7.2 µM and the “MBC-B G. vaginalis” value [3] was 117.6 µM. For the same compound, the “MIC of CAm in combination” value [4] was 3.4 µM and the MIC [4] was 24.4 µM.
With `CCCCCCCCCC(=O)OC(C(=O)NCCN)C(OC(=O)CCCCCCCCC)C(=O)NCCN.Cl.Cl` (centres unmarked) [8b] the “cytotoxicity to human fibroblasts (MTT cell viability)” value [1] was “did not produce pronounced cytotoxicity”, the IC50 [1] was 13.9 µg/mL and the “MIC-B: concentration preventing 50% or >50% of biofilm formation” value [2] was 3.2 µM. The “MBC-B G. vaginalis” value [3] was 425.6 µM, the “MIC of CAm in combination” value [4] was 0.2 µM and the MIC [4] was 10 µM.

From US10759740B2, “Antibacterial agents” (Rutgers, The State University of New Jersey, priority 2016, dated 2020)
